Counter-ions that a name gives are not always drawn.
Tests used:
[1] = test system: female NMRI mice; experiment: LD50 acute toxicity in mice (Litchfield and Wilcoxon); type: in vivo; conditions: for Toxicity, LD50 i.p. / Toxicity, LD50 p.o.: female NMRI mice 20-30 g, 10 days observation, 14400 min
[2] = antibacterial activity, general statement; type: cell-based
[3] = test system: bacterial parent strains (Escherichia coli, Proteus vulgaris, Pseudomonas aeruginosa); experiment: bacteriostatic activity (serial dilution in thioglycolate nutrient solution); type: cell-based; conditions: for concentration at which activity is (still) shown (text): after 6 days at 30°C; for Bacteriostatic activity in relation to concentration (table): solutions containing 100 mg hexetidine, incubated at 30°C for 6 days
Procedure: For a determination of bacteriostatic activity, solutions of hexetidine, hexetidine oxalate and hexetidine nicotinate having the following compositions were compared: The inoculum suspension was obtained by inoculation of a sterile Petri dish containing nutrient agar (standard I) with a test culture of bacterial parent strains (Escherichia coli, Proteus vulgaris, Pseudomonas aeruginosa) and incubation at 30°C for 24 hours. The suspension was either used immediately or stored at +4°C. The organisms grown in the Petri dish were elutriated with 5 ml physiological brine solution and diluted 1:10 with the same solution to a volume of 50 ml. Then 250 ml double concentrated thioglycolate solution (60 g/l) were mixed with 100 drops (about 5 ml) of the above 1:10 diluted primary culture of bacterial parent strains and shaken to obtain a uniform suspension. Serial dilutions were prepared for each of the above-mentioned compound solutions in the following concentrations, each comprising 10 test tubes of […]: hexetidine per ml: 1,000; 500; 250; 125; 62.5; about 31; about 16; about 8; about 4; about 2. Next, 5 ml double concentrated thioglycolate nutrient solution inoculated with the test organisms were added to each test tube by means of a pipet. Each test tube thus contained 50% of the final concentration. […]

[4] = Saski and Shah 1965; Barkley et al. 1960/1961; cited from earlier work
[5] = LD50 acute toxicity in mice (Litchfield and Wilcoxon); type: in vivo; conditions: mouse, in vivo, po; female NMRI mice 20-30 g; 10 days observation
[6] = solubility (testability in the bacteriostatic test); type: physicochemical; conditions: could not be tested in bacteriostatic test
[7] = listed as Hexetidine nicotinate

CCCCC(CC)CN1CN(CC(CC)CCCC)CC(C)(N)C1 (stereo not drawn) [hexetidine nicotinate, 1,3-bis(β-ethylhexyl)-5-amino-5-methylhexahydropyrimidine pyridine-3-carboxylate]
Toxicity, LD50 i.p. [1, 7]: 63 mg/kg
Toxicity, LD50 p.o. [1, 7]: 1,830 mg/kg
toxicity of hexetidine after salt formation with nicotinic acid ([1]; relative to hexetidine, mice): substantially reduced
antibacterial activity compared with hexetidine [2]: particularly favorable increase in antibacterial activity
concentration at which activity is (still) shown (text) [3, 7]: 62.5 γ
Bacteriostatic activity in relation to concentration (table) [3, 7]: 62.5 γ

CCCCC(CC)CN1CN(CC(CC)CCCC)CC(C)(N)C1 (stereo not drawn) [hexetidine oxalate]
Toxicity, LD50 i.p. ([1]; listed as Hexetidine oxalate): 23 mg/kg
Toxicity, LD50 p.o. ([1]; listed as Hexetidine oxalate): 970 mg/kg
concentration at which activity is (still) shown (text) ([3]; listed as Hexetidine oxalate): > 500 γ
Bacteriostatic activity in relation to concentration (table) ([3]; listed as Hexetidine oxalate): 500 γ

CCCCC(CC)CN1CN(CC(CC)CCCC)CC(C)(N)C1 (stereo not drawn) [hexetidine, 1,3-bis(β-ethylhexyl)-5-amino-5-methylhexahydropyrimidine]
antibacterial activity (words, literature) [4]: remarkable antibacterial activity
Toxicity, LD50 i.p. ([1]; listed as Hexetidine): 33 mg/kg
LD50 at 240 h [5]: 960 mg/kg
concentration at which activity is (still) shown (text) [3]: 125 γ
Bacteriostatic activity in relation to concentration (table) ([3]; listed as Hexetidine): 125 γ

CCCCC(CC)CN1CN(CC(CC)CCCC)CC(C)(N)C1 (stereo not drawn) [hexetidine cinnamate]
solubility [6]: extreme insolubility
Toxicity, LD50 i.p. ([1]; listed as Hexetidine cinnamate): 54 mg/kg
Toxicity, LD50 p.o. ([1]; listed as Hexetidine cinnamate): 1,740 mg/kg

Reference: US3946013A, “1,3-BIS(Beta-ethylhexyl)-5-amino-5-methylhexahydropyrimidine-pyridine- 3-carboxylate, process for its preparation and pharmaceutical compositions containing this compound” (Wulfing; Johann A., priority 1973, dated 1976)
